Measured values reported in patent US6737383B1, “Herbicidal oxadiazolidines” (priority 1999, dated 2004).

Tests used:
arrowleaf sida = assay: Test C postemergence arrowleaf sida; assay type: in vivo, Sida rhombifolia; conditions: 0 to 100 scale, 0 no effect, 100 complete control
How it was run: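 Foliar postemergence treatment of greenhouse plants grown in 60:40 sandy loam:potting mix; compounds delivered in non-phytotoxic solvent with surfactant. Evaluation is visual, 0–100, after ~14–21 d.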

eastern black nightshade = assay: Test C postemergence eastern black nightshade; assay type: in vivo, Solanum ptycanthum; conditions: 0 to 100 scale, 0 no effect, 100 complete control
Method: (§1) Compounds evaluated in this test were formulated in a non-phytotoxic solvent mixture which included a surfactant and applied to plants that were grown for various periods of time before treatment (postemergence application). A mixture of sandy loam soil and greenhouse potting mix in a 60:40 ratio was used for the postemergence test.
(§2) Plantings of these crops and weed species were adjusted to produce plants of appropriate size for the postemergence test. All plant species were grown using normal greenhouse practices. Crop and weed species include arrowleaf sida (Sida rhombifolia), barnyardgrass (Echinochloa crus-galli), cocklebur (Xanthium strumarium), common ragweed (Ambrosia elatior), corn (Zea mays), cotton (Gossypium hirsutum), eastern black nightshade (Solanum ptycanthum), fall panicum (Panicum dichotomiflorum), field bindweed (Convolvulus arvensis), giant foxtail (Setaria faberii), hairy beggarticks (Bidens pilosa), ivyleaf morningglory (Ipomoea hederacea), johnsongrass (Sorghum halepense), ladysthumb smartweed (Polygonum persicaria), lambsquarters (Chenopodium album), large crabgrass (Digitaria sanguinalis), purple nutsedge (Cyperus rotundus), redroot pigweed (Amaranthus retroflexus), soybean (Glycine max), surinam grass (Brachiaria decumbens), velvetleaf (Abutilon theophrasti) and wild poinsettia (Euphorbia heterophylla).
(§3) Treated plants and untreated controls were maintained in a greenhouse for approximately 14, to 21 days, after which all treated plants were compared to untreated controls and visually evaluated. Plant response ratings, summarized in Table C, were based upon a 0 to 100 scale where 0 was no effect and 100 was complete control. A dash response (−) means no test result.

lambsquarters = assay: Test C postemergence lambsquarters; assay type: in vivo, Chenopodium album; conditions: 0 to 100 scale, 0 no effect, 100 complete control
Method: as §1, §2, §3

large crabgrass = assay: Test C postemergence large crabgrass; assay type: in vivo, Digitaria sanguinalis; conditions: 0 to 100 scale, 0 no effect, 100 complete control
Method: as §1, §2, §3

purple nutsedge = assay: Test C postemergence purple nutsedge; assay type: in vivo, Cyperus rotundus; conditions: 0 to 100 scale, 0 no effect, 100 complete control
Method: as §1, §2, §3

surinam grass = assay: Test C postemergence surinam grass; assay type: in vivo, Brachiaria decumbens; conditions: 0 to 100 scale, 0 no effect, 100 complete control
Method: as §1, §2, §3

deadnettle = assay: Test E deadnettle; assay type: in vivo, Lamium amplexicaule; conditions: Postemergence; for Plant response rating, Deadnettle: 0 to 100 scale; for Deadnettle plant response rating: Rate 250 g/ha, 0 to 100 scale where 0 is no effect and 100 is complete control
How it was run: (§4)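 Compound formulated with surfactant in a non-phytotoxic solvent (postemergence: young 1- to 4-leaf plants); held in greenhouse approx. 21–28 days; visual assessment against untreated plants.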

downy brome = assay: Test E downy brome; assay type: in vivo, Bromus tectorum; conditions: Postemergence; for Plant response rating, Downy brome: 0 to 100 scale; for Downy brome plant response rating: Rate 250 g/ha, 0 to 100 scale where 0 is no effect and 100 is complete control
How it was run: as §4

kochia [1] = assay: Test E kochia; assay type: in vivo, Kochia scoparia; conditions: Postemergence; for Plant response rating, Kochia: 0 to 100 scale; for Kochia plant response rating: Rate 250 g/ha, 0 to 100 scale where 0 is no effect and 100 is complete control
Method: as §1, with “in the 1- to 4-leaf stage” for “grown for various periods of time before treatment”
(§5) Plantings of these crops and weed species were adjusted to produce plants of appropriate size for the postemergence test. All plant species were grown using normal greenhouse practices. Crop and weed species include annual bluegrass (Poa annua), blackgrass (Alopecurus myosuroides), black nightshade (Solanum nigra), chickweed (Stellaria media), common poppy (Papaver rhoeas), deadnettle (Lamium amplexicaule), downy brome (Bromus tectorum), field violet (Viola arvensis), galium (Galium aparine), green foxtail (Setaria viridis), Italian ryegrass (Lolium multiflorum), jointed goatgrass (Aegilops cylindrica), kochia (Kochia scoparia), lambsquarters (Chenopodium album), littleseed canarygrass (Phalaris minor), rape (Brassica napus), redroot pigweed (Amaranthus retroflexus), Russian thistle (Salsola kali), scentless chamomile (Matricaria inodora), spring barley (Hordeum vulgare), sugar beet (Beta vulgaris), sunflower (Helianthus annuus), ivyleaf speedwell (Veronica hederaefolia), spring wheat (Triticum aestivum), winter wheat (Triticum aestivum), wild buckwheat (Polygonum convolvulus), wild mustard (Sinapis arvensis), wild oat (Avena fatua), windgrass (Apera spica-venti) and winter barley (Hordeum vulgare).
(§6) Treated plants and untreated controls were maintained in a greenhouse for approximately 21 to 28 days, after which all treated plants were compared to untreated controls and visually evaluated. […] A dash response (-) means no test result.

rape = assay: Test E rape; assay type: in vivo, Brassica napus; conditions: Postemergence; for Plant response rating, Rape: 0 to 100 scale; for Rape plant response rating: Rate 250 g/ha, 0 to 100 scale where 0 is no effect and 100 is complete control
Method: […] A mixture of sandy loam soil and greenhouse potting mix in a 60:40 ratio was used for the postemergence test.
as §5, §6

annual bluegrass = assay: Test E annual bluegrass; assay type: in vivo, Poa annua; conditions: Preemergence; for Annual bluegras plant response rating (0 to 100 scale): Rate 250 g/ha
kochia [2] = assay: Test E kochia; assay type: in vivo, Kochia scoparia; conditions: Preemergence; for Kochia plant response rating (0 to 100 scale): Rate 250 g/ha
common pursiane = assay: Test D common purslane; assay type: in vivo, Portulaca oleracea; conditions: Postemergence, 0 to 100 scale
goosegrass = assay: Test D goosegrass; assay type: in vivo, Eleusine indica; conditions: Postemergence, 0 to 100 scale
Green foxtail [3] = assay: Test D green foxtail; assay type: in vivo; conditions: Postemergence, 0 to 100 scale, 0 no injury, 100 complete control
Green foxtail [4] = assay: Test D green foxtail; assay type: in vivo; conditions: Rate 250 g/ha; Postemergence; 0 to 100 scale
[5] = Rate 125 g/ha, 0 to 100 scale (0 no effect, 100 complete control)
[6] = Rate 16 g/ha, 0 no injury, 100 complete control
[7] = Rate 32 g/ha, 0 no injury, 100 complete control
[8] = Rate 64 g/ha, 0 no injury, 100 complete control
[9] = Rate 125 g/ha, 0 no injury, 100 complete control
[10] = Rate 125 g/ha, 0 is no effect, 100 is complete control
[11] = Rate 500 g/ha, 0 is no effect, 100 is complete control
[12] = Rate 500 g/ha, 0 to 100 scale where 0 is no effect and 100 is complete control

## CC(C)N(C(=O)n1oc(=O)n(C)c1=O)c1ccc(F)cc1 [Compound 138]
Arrowleaf sida; Rate 140 g/ha
  Plant response rating Arrowleaf sida: 0
Arrowleaf sida; Rate 1120 g/ha
  Plant response rating Arrowleaf sida: 70
Eastern black nightshade; Rate 140 g/ha
  Plant response rating E. blacknightsh: 0
Eastern black nightshade; Rate 280 g/ha
  Plant response rating E. blacknightsh: 10
Eastern black nightshade; Rate 560 g/ha
  Plant response rating E. blacknightsh: 70
Eastern black nightshade; Rate 1120 g/ha
  Plant response rating E. blacknightsh: 70
lambsquarters; Rate 140 g/ha
  Plant response rating Lambsquarters: 0
lambsquarters; Rate 280 g/ha
  Plant response rating Lambsquarters: 0
lambsquarters; Rate 560 g/ha
  Plant response rating Lambsquarters: 10
lambsquarters; Rate 1120 g/ha
  Plant response rating Lambsquarters: 20
Large crabgrass; Rate 140 g/ha
  Plant response rating, Large crabgrass: 0
Large crabgrass; Rate 280 g/ha
  Plant response rating, Large crabgrass: 10
Large crabgrass; Rate 560 g/ha
  Plant response rating, Large crabgrass: 85
Large crabgrass; Rate 1120 g/ha
  Plant response rating, Large crabgrass: 85
Purple nutsedge; Rate 140 g/ha
  Plant response rating, Purple nutsedge: 0
Purple nutsedge; Rate 280 g/ha
  Plant response rating, Purple nutsedge: 0
Purple nutsedge; Rate 560 g/ha
  Plant response rating, Purple nutsedge: 50
Purple nutsedge; Rate 1120 g/ha
  Plant response rating, Purple nutsedge: 70
Surinam grass; Rate 140 g/ha
  Plant response rating, Surinam grass: 10
Surinam grass; Rate 280 g/ha
  Plant response rating, Surinam grass: 40
Surinam grass; Rate 560 g/ha
  Plant response rating, Surinam grass: 85
Surinam grass; Rate 1120 g/ha
  Plant response rating, Surinam grass: 90
deadnettle; Rate 125 g/ha
  Plant response rating, Deadnettle: 0
deadnettle
  Deadnettle plant response rating: 50
Downy brome; Rate 125 g/ha
  Plant response rating, Downy brome: 0
Downy brome
  Downy brome plant response rating: 2
Kochia [1]; Rate 125 g/ha
  Plant response rating, Kochia: 15
Kochia [1]
  Kochia plant response rating: 0
rape; Rate 125 g/ha
  Plant response rating, Rape: 10
rape
  Rape plant response rating: 0
Annual bluegrass
  Annual bluegras plant response rating (0 to 100 scale): 70
Kochia [2]; [5]
  Plant response rating, Kochia: 20
Kochia [2]
  Kochia plant response rating (0 to 100 scale): 40

## CC(C)N(C(=O)n1oc(=O)n(C2CCCCCC2)c1=O)c1ccc(F)cc1F [Compound 342]
Common pursiane; [6]
  Plant response rating, C. purslane: 0
Common pursiane; [7]
  Plant response rating, C. purslane: 0
Common pursiane; [8]
  Plant response rating, C. purslane: 0
Common pursiane; [9]
  Plant response rating, C. purslane: 0
Common pursiane; Rate 250 g/ha
  Plant response rating, C. purslane: 0
goosegrass; [6]
  Plant response rating, Goosegrass: 20
goosegrass; [7]
  Plant response rating, Goosegrass: 30
goosegrass; [8]
  Plant response rating, Goosegrass: 90
goosegrass; [9]
  Plant response rating, Goosegrass: 100
goosegrass; Rate 250 g/ha
  Plant response rating, Goosegrass: 100
Green foxtail [3]; Rate 16 g/ha
  Plant response rating, Green foxtail: 0
Green foxtail [3]; Rate 32 g/ha
  Plant response rating, Green foxtail: 0
Green foxtail [4]
  Plant response rating, Green foxtail: 100

## CC(C)N(C(=O)n1oc(=O)n(C2CC2)c1=O)c1ccc(F)cc1 [Compound 242]
Arrowleaf sida; Rate 140 g/ha
  Plant response rating Arrowleaf sida: 10
Arrowleaf sida; Rate 280 g/ha
  Plant response rating Arrowleaf sida: 30
Arrowleaf sida; Rate 560 g/ha
  Plant response rating Arrowleaf sida: 70
Arrowleaf sida; Rate 1120 g/ha
  Plant response rating Arrowleaf sida: 90
Eastern black nightshade; Rate 140 g/ha
  Plant response rating E. blacknightsh: 0
Eastern black nightshade; Rate 280 g/ha
  Plant response rating E. blacknightsh: 40
Eastern black nightshade; Rate 560 g/ha
  Plant response rating E. blacknightsh: 60
Eastern black nightshade; Rate 1120 g/ha
  Plant response rating E. blacknightsh: 90
lambsquarters; Rate 140 g/ha
  Plant response rating Lambsquarters: 0
lambsquarters; Rate 280 g/ha
  Plant response rating Lambsquarters: 0
lambsquarters; Rate 560 g/ha
  Plant response rating Lambsquarters: 0
lambsquarters; Rate 1120 g/ha
  Plant response rating Lambsquarters: 0
Large crabgrass; Rate 140 g/ha
  Plant response rating, Large crabgrass: 10
Large crabgrass; Rate 280 g/ha
  Plant response rating, Large crabgrass: 30
Large crabgrass; Rate 560 g/ha
  Plant response rating, Large crabgrass: 85
Large crabgrass; Rate 1120 g/ha
  Plant response rating, Large crabgrass: 85
Purple nutsedge; Rate 140 g/ha
  Plant response rating, Purple nutsedge: 0
Purple nutsedge; Rate 280 g/ha
  Plant response rating, Purple nutsedge: 0
Purple nutsedge; Rate 560 g/ha
  Plant response rating, Purple nutsedge: 10
Purple nutsedge; Rate 1120 g/ha
  Plant response rating, Purple nutsedge: 80
Surinam grass; Rate 140 g/ha
  Plant response rating, Surinam grass: 0
Surinam grass; Rate 280 g/ha
  Plant response rating, Surinam grass: 40
Surinam grass; Rate 560 g/ha
  Plant response rating, Surinam grass: 85
Surinam grass; Rate 1120 g/ha
  Plant response rating, Surinam grass: 90
deadnettle; Rate 62 g/ha
  Plant response rating, Deadnettle: 100
deadnettle; [10]
  Plant response rating, Deadnettle: 10
deadnettle
  Deadnettle plant response rating: 10
deadnettle; [11]
  Plant response rating, Deadnettle: 50
Downy brome; Rate 62 g/ha
  Plant response rating, Downy brome: 30
Downy brome; [10]
  Plant response rating, Downy brome: 30
Downy brome
  Downy brome plant response rating: 30
Downy brome; [11]
  Plant response rating, Downy brome: 40
Kochia [1]; Rate 62 g/ha
  Plant response rating, Kochia: 20
Kochia [1]; [10]
  Plant response rating, Kochia: 60
Kochia [1]
  Kochia plant response rating: 0
Kochia [1]; [11]
  Plant response rating, Kochia: 20
rape; Rate 62 g/ha
  Plant response rating, Rape: 20
rape; [10]
  Plant response rating, Rape: 10
rape
  Rape plant response rating: 0
rape; [11]
  Plant response rating, Rape: 50
Common pursiane; [6]
  Plant response rating, C. purslane: 0
Common pursiane; [7]
  Plant response rating, C. purslane: 0
Common pursiane; [8]
  Plant response rating, C. purslane: 0
Common pursiane; [9]
  Plant response rating, C. purslane: 0
Common pursiane; Rate 250 g/ha
  Plant response rating, C. purslane: 0
goosegrass; [6]
  Plant response rating, Goosegrass: 90
goosegrass; [7]
  Plant response rating, Goosegrass: 100
goosegrass; [8]
  Plant response rating, Goosegrass: 100
goosegrass; [9]
  Plant response rating, Goosegrass: 100
goosegrass; Rate 250 g/ha
  Plant response rating, Goosegrass: 100
Annual bluegrass; [5]
  Plant response rating, Annual bluegras: 100
Annual bluegrass
  Annual bluegras plant response rating (0 to 100 scale): 100
Annual bluegrass; [12]
  Plant response rating, Annual bluegras: 100
Kochia [2]; [5]
  Plant response rating, Kochia: 35
Kochia [2]
  Kochia plant response rating (0 to 100 scale): 50
Kochia [2]; [12]
  Plant response rating, Kochia: 60
Green foxtail [3]; Rate 16 g/ha
  Plant response rating, Green foxtail: 30
Green foxtail [3]; Rate 32 g/ha
  Plant response rating, Green foxtail: 100
Green foxtail [4]
  Plant response rating, Green foxtail: 100
